Patent US20240066075A1, “METHODS AND USES OF MICROBIOME COMPOSITIONS, COMPONENTS, OR METABOLITES FOR TREATING EYE DISORDERS” (MarvelBiome, Inc., priority 2021, published 2024)

Tested on: NaIO3-treated ARPE-19 cells
Experiment: NaIO3-induced degradation of ARPE-19 cells, MTT cell viability assay
Assay type: cell-based, human
Details: 16 hours
Experimental: Cell Culture: ARPE-19 passages 3-7 were used for all experiments. Cells were cultured in %-well plates in DMEM:F12 with 10% of FBS, and incubated at 37° C. with 5% CO2 humidified atmosphere. […] Cell Viability Assay: The colorimetric MTT assay was used to check cell viability. […] At the same time different MBTs, labeled 1 through 10 and summarized in FIG. 2 and Table 2 below, were given to the treatment group at a concentration of 10^6 CFU. After 16 hours of incubation, the absorbance cell viability was evaluated by spectrophotometrically using a microplate reader at 600 nm. Cell Culture: ARPE-19 passages 3-7 were used for all experiments. Cells were cultured in 96-well plates in DMEM:F12 with 10% of FBS, and incubated at 37° C. with 5% CO2 humidified atmosphere. […] Cell Viability Assay: The colorimetric MTT assay was used to check cell viability. […] In the control group, cells were treated only with DMEM:F12 (control media; labeled 'mock-treated' in FIG. 3). […] After 16 hours of incubation, the absorbance cell viability was evaluated by spectrophotometrically using a microplate reader at 600 nm. […] After 16 hours of incubation, the absorbance cell viability was evaluated by spectrophotometrically using a microplate reader at 600 nm. […] After 16 hours of incubation, the absorbance cell viability was evaluated by spectrophotometrically using a microplate reader at 600 nm.

Structure (SMILES)	cell viability of NaIO3-treated ARPE-19 cells compared to controls (MTT) (1200 μg/ml NaIO3, all tested concentrations of 5-keto-gluconate (0.1%, 0.2%, 0.4%, 0.5% w/v))	cell viability of NaIO3-treated ARPE-19 cells compared to controls (MTT) (1200 μg/ml NaIO3, 0.1% (w/v) of 2-keto-gluconate)
O=C(CO)[C@@H](O)[C@H](O)[C@@H](O)C(=O)O [5-keto-gluconate]	improved cell viability	
O=C(O)C(=O)[C@@H](O)[C@H](O)[C@H](O)CO [2-keto-gluconate]		improved cell viability
